# Data published in PMC10138506, “Design, Synthesis and Cytotoxic Activity of Novel Salicylaldehyde Hydrazones against Leukemia and Breast Cancer” (International Journal of Molecular Sciences, 2023).
# Like-named read-outs stand apart in the source and are kept apart here.
# What was measured:
# [1] = test system: HL-60 cells; experiment: MTT-dye reduction cytotoxicity assay, HL-60; type: cell-based, human; conditions: for IC50: Homo sapiens, HL-60; for SI (selectivity index) HL-60: SI = IC50 (HEK-293)/IC50 (cancer cells)
# Experimental: (§1) The research included four leukemic and three cancer human cell lines: HL-60 (acute myeloid leukemia), SKW-3 (KE-37 derivative) (T-cell leukemia), BV-173 and K-562 (chronic myeloid leukemia), MDA-MB-231 (ER-negative breast carcinoma), MCF-7 (ER-positive breast adenocarcinoma), and SaOS-2 (osteogenic sarcoma). The cells were provided from the German Collection of Microorganisms and Cell Cultures (DSMZ, Braunschweig, Germany). The solid tumor cell lines (MDA-MB-231, MCF-7, and SaOS-2) were incubated in 90% RPMI-1640 supplemented with 10% fetal bovine serum (FBS), non-essential amino acids, 1 mM sodium pyruvate, and […] human insulin as monolayer adherent cultures. The remaining cell lines were cultivated as a suspension culture in cell culture flasks at 37 °C in an incubator “BB 16-Function Line” Heraeus (Kendro, Hanau, Germany) with humidified atmosphere and 5% CO2 under standard conditions–RPMI-1640 liquid media supplemented with 10% FBS and 2 mM L-glutamine. The cells were kept in log phase by supplementing with fresh media after removing cell suspension aliquots two or three times each week.
# (§2) At least eight wells were used for each concentration.
# [2] = test system: KE-37 cells; experiment: MTT-dye reduction cytotoxicity assay, KE-37; type: cell-based, human; conditions: for IC50: Homo sapiens, KE-37; for SI (selectivity index) KE-37: SI = IC50 (HEK-293)/IC50 (cancer cells)
# Experimental: as §1, §2
# [3] = test system: K-562 cells; experiment: MTT-dye reduction cytotoxicity assay, K-562; type: cell-based, human; conditions: for IC50: Homo sapiens, K562; for SI (selectivity index) K-562: SI = IC50 (HEK-293)/IC50 (cancer cells); for Ligand Efficiency (LE) K-562: LE = pIC50/number of heavy atoms
# Experimental: as §1, §2
# [4] = test system: BV-173 cells; experiment: MTT-dye reduction cytotoxicity assay, BV-173; type: cell-based, human; conditions: for IC50: Homo sapiens, BV-173; for SI (selectivity index) BV-173: SI = IC50 (HEK-293)/IC50 (cancer cells)
# Experimental: as §1, §2
# [5] = test system: SaOS-2 cells; experiment: MTT-dye reduction cytotoxicity assay, SaOS-2; type: cell-based, human; conditions: for IC50: Homo sapiens, SAOS-2; for SI (selectivity index) SaOS-2: SI = IC50 (HEK-293)/IC50 (cancer cells)
# Experimental: as §1, §2
# [6] = test system: MDA-MB-231 cells; experiment: MTT-dye reduction cytotoxicity assay, MDA-MB-231; type: cell-based, human; conditions: for IC50: Homo sapiens, MDA-MB-231; for SI (selectivity index) MDA-MB-231: SI = IC50 (HEK-293)/IC50 (cancer cells)
# Experimental: as §1, §2
# [7] = test system: MCF-7 cells; experiment: MTT-dye reduction cytotoxicity assay, MCF-7; type: cell-based, human; conditions: for IC50: Homo sapiens, MCF7; for SI (selectivity index) MCF-7: SI = IC50 (HEK-293)/IC50 (cancer cells)
# Experimental: as §1, §2
# [8] = MTT-dye reduction cytotoxicity assay, normal HEK-293; conditions: human
# Experimental: (§3) To assess the selectivity of the newly synthesized derivatives, they were tested on the normal human embryonic kidney HEK-293 cell line. The derived IC50 values were used to calculate the selectivity index according to the formula SI = IC50 (normal cells)/IC50 (cancer cells).
# The cytotoxic activity of the examined substances was determined using Mossman’s MTT [3-(4,5-dimethylthiazol-2-yl)-2,5-diphenyltetrazolium bromide] dye reduction assay. The approach is based on the reduction of the yellow tetrazolium salt MTT to a violet formazan in live cells via mitochondrial succinate dehydrogenase. In brief, exponentially developing cells were seeded at a density of 1 × 10^5 cells per ml in 96-well flat-bottomed microplates (100 μL/well), and after 24 h of incubation at 37 °C, they were treated to varied doses of the tested substances for 72 h. At least eight wells were used for each concentration. Following the incubation with the test compounds, aliquots of 10 μL MTT solution (10 mg/mL in PBS) were applied to each well. The microplates were then incubated at 37 °C for 4 h before the MTT-formazan crystals were dissolved with 100 μL/well 5% HCOOH in 2-propanol. The MTT-formazan absorbance was measured at 580 nm using a microprocessor-controlled microplate reader (Labexim LMR-1).
# The cell survival data were standardized as a percentage of the untreated control (set as 100% viability). The biological data were processed statistically using Student’s t-test, where values were considered statistically significant at p ≤ 0.05. The corresponding IC50 values were obtained to allow quantitative merit for the assessment of the relative potencies of the compounds under investigation. Each data point represents the arithmetic mean ± standard deviation (sd) of at least eight independent experiments.
# [9] = test system: HL-60, KE-37, K-562, BV-173, SaOS-2, MDA-MB-231, MCF-7 cell lines; experiment: Average over the cancer cell lines tested (LE, SI); type: cell-based, human; conditions: average over seven cancer cell lines
# Experimental: as §3
# The training set of salicylaldehyde hydrazones contained 11 compounds synthesized and tested before in our Lab. Their anticancer activities were measured and expressed as IC50 values on the following cell lines: HL-60, KE-37, K-562, BV-173, SaOS-2, MDA-MB-231, and MCF-7. For the purposes of SAR analysis, the IC50 values were converted in p-units (−logIC50) and ligand efficiencies (LEs) were calculated according to the formula: LE = pIC50/n, where n is the count of non-hydrogen atoms in the molecule.
# [10] = 72 h treatment, read-out: IC50 exp, HL-60
# [11] = 72 h treatment, read-out: IC50 exp, KE-37
# [12] = 72 h treatment, read-out: IC50 exp, K-562
# [13] = 72 h treatment, read-out: IC50 exp, BV-173
# [14] = 72 h treatment, read-out: IC50 exp, SaOS-2
# [15] = 72 h treatment, read-out: IC50 exp, MDA-MB-231
# [16] = 72 h treatment, read-out: IC50 exp, MCF-7
# [17] = HEK-293 cells (normal human embryonic kidney)
# [18] = training set, some activities published before [26-32], the rest measured for this study, read-out: IC50 ± standard deviation, HL-60
# [19] = training set, some activities published before [26-32], the rest measured for this study, read-out: IC50 ± standard deviation, KE-37
# [20] = training set, some activities published before [26-32], the rest measured for this study, read-out: IC50 ± standard deviation, K-562
# [21] = training set, some activities published before [26-32], the rest measured for this study, read-out: IC50 ± standard deviation, BV-173
# [22] = training set, some activities published before [26-32], the rest measured for this study, read-out: IC50 ± standard deviation, SaOS-2
# [23] = training set, some activities published before [26-32], the rest measured for this study, read-out: IC50 ± standard deviation, MDA-MB-231
# [24] = training set, some activities published before [26-32], the rest measured for this study, read-out: IC50 ± standard deviation, MCF-7
# [25] = compound 13 versus benzoyl analog
smiles,measurement,setting,value
"COc1ccc(C=NNC(=O)c2ccncc2)c(O)c1 [Compound 14, 4-methoxysalicylaldehyde isonicotinoylhydrazone]",IC50,[1]; [10],0.06 ± 0.004 µM
same,SI (selectivity index) HL-60,[1],685
same,IC50,[2]; [11],2.26 ± 0.73 µM
same,SI (selectivity index) KE-37,[2],18
same,IC50,[3]; [12],0.05 ± 0.008 µM
same,SI (selectivity index) K-562,[3],821
same,IC50,[4]; [13],0.97 ± 0.12 µM
same,SI (selectivity index) BV-173,[4],42
same,IC50,[5]; [14],1.66 ± 0.24 µM
same,SI (selectivity index) SaOS-2,[5],25
same,IC50,[6]; [15],1.22 ± 0.19 µM
same,SI (selectivity index) MDA-MB-231,[6],34
same,IC50,[7]; [16],0.23 ± 0.04 µM
same,SI (selectivity index) MCF-7,[7],179
same,IC50 at 72 h,[8]; [17],41.1 ± 2.05 µM
same,average SI,[9],258
COc1cccc(/C=N/NC(=O)c2ccncc2)c1O [Compound 3],IC50,[1]; [18],2.7 ± 0.9 µM
same,IC50,[2]; [19],3.3 ± 1.2 µM
same,IC50,[3]; [20],8.7 ± 2 µM
same,Ligand Efficiency (LE) K-562,[3],0.253
same,IC50,[4]; [21],3.7 ± 1.1 µM
same,IC50,[5]; [22],11.9 ± 3.2 µM
same,IC50,[6]; [23],16.4 ± 2 µM
same,IC50,[7]; [24],11.7 ± 2.4 µM
"COc1ccc(C=NNC(=O)c2ccc(O)cc2)c(O)c1 [Compound 13, 4-methoxysalicylaldehyde-4-hydroxybenzoylhydrazone]",IC50,[1]; [10],8.9 ± 2.47 µM
same,SI (selectivity index) HL-60,[1],6
same,IC50,[2]; [11],10.8 ± 2.81 µM
same,SI (selectivity index) KE-37,[2],5
same,IC50,[3]; [12],8.75 ± 1.29 µM
same,SI (selectivity index) K-562,[3],6
same,"reduction of cytotoxicity by hydroxy group in the benzoyl ring, K-562",[3]; [25],292 fold
same,IC50,[4]; [13],3.88 ± 1.16 µM
same,SI (selectivity index) BV-173,[4],15
same,"reduction of cytotoxicity by hydroxy group in the benzoyl ring, BV-173",[4]; [25],3 fold
same,IC50,[5]; [14],26 ± 3.65 µM
same,SI (selectivity index) SaOS-2,[5],2
same,"reduction of cytotoxicity by hydroxy group in the benzoyl ring, sarcomic cells",[5]; [25],15.5 fold
same,IC50,[6]; [15],2.9 ± 0.32 µM
same,SI (selectivity index) MDA-MB-231,[6],20
same,"reduction of cytotoxicity by hydroxy group in the benzoyl ring, MDA-MB-231",[6]; [25],1.25 fold
same,IC50,[7]; [16],1.38 ± 0.08 µM
same,SI (selectivity index) MCF-7,[7],41
same,"reduction of cytotoxicity by hydroxy group in the benzoyl ring, MCF-7",[7]; [25],6 fold
same,IC50 at 72 h,[8]; [17],56.7 ± 4.35 µM
same,average SI,[9],14
same,melting point,,216 to 217 °C
COc1ccc(O)c(/C=N/NC(=O)c2ccc(O)cc2)c1 [Compound 10],IC50,[1]; [18],13.8 ± 3.1 µM
same,IC50,[2]; [19],14.8 ± 2.5 µM
same,IC50,[4]; [21],3.86 ± 0.9 µM
same,IC50,[6]; [23],12.1 ± 1.9 µM
same,IC50,[7]; [24],3.54 ± 0.5 µM
COc1ccc(O)c(/C=N/NC(=O)c2ccncc2)c1 [Compound 11],IC50,[1]; [18],6.68 ± 1.4 µM
same,IC50,[2]; [19],10.9 ± 2.2 µM
same,IC50,[4]; [21],2.95 ± 0.8 µM
same,IC50,[6]; [23],5.58 ± 1.3 µM
same,IC50,[7]; [24],3 ± 0.6 µM
O=C(N/N=C/c1cc([N+](=O)[O-])ccc1O)c1ccccc1 [Compound 6],IC50,[1]; [18],5.64 ± 1.1 µM
same,IC50,[2]; [19],6.38 ± 0.2 µM
same,IC50,[3]; [20],7.94 ± 2.3 µM
same,Ligand Efficiency (LE) K-562,[3],0.243
same,IC50,[4]; [21],2.39 ± 0.3 µM
same,IC50,[5]; [22],41.9 ± 5.1 µM
same,IC50,[6]; [23],2.8 ± 2.7 µM
same,IC50,[7]; [24],0.25 ± 0.03 µM
"COc1ccc(C=NNC(=O)c2ccncc2)c(O)c1 (hydrate or solvate) [Compound 14, 4-methoxysalicylaldehyde isonicotinoylhydrazone]",melting point,,232 to 233 °C
"N[C@@H](Cc1ccc(N(CCCl)CCCl)cc1)C(=O)O [Melphalan, 2-amino-3-[4-bis(2-chloroethyl)amino]phenylpropanoic acid, reference compound]",IC50,[5]; [14],31.4 ± 5.4 µM
same,IC50,[5]; [22],31.4 ± 5.4 µM
same,IC50 at 72 h,[8],24.8 ± 2.9 µM
